From patent US20230391760A1, “HETEROCYCLIC GLP-1 AGONISTS” (Gasherbrum Bio, Inc., priority 2020, published 2023) come the findings set out here.

Broadly, the pEC50 is −log10 of the EC50, conventionally taken in molar units. A lower pEC50 goes with a high EC50.

pEC50: −log10 of the molar value.

Sequence of GLP-1 Receptor (P43220 24-463, species assumed): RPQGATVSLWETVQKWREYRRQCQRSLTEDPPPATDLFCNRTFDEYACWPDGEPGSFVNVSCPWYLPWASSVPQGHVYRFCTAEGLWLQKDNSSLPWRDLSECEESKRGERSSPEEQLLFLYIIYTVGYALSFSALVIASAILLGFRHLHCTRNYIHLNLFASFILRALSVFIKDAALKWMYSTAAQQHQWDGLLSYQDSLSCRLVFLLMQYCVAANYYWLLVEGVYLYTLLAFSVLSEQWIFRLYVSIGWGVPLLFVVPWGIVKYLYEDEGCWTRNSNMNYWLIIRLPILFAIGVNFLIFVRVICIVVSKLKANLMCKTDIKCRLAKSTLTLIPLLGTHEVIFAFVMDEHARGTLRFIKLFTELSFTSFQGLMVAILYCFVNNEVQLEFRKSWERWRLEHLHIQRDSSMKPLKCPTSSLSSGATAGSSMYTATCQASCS

The target in the experiment is GLP-1 Receptor (Homo sapiens, UniProt P43220). The experiment in a line: GLP-1R agonist cAMP stimulation assay (HEK293/GLP1R/CRE-LUC cells, cAMP dynamic 2 Kit). Type of experiment: cell-based. Particulars: HEK293/CRE-Luc cell line stably expressing the GLP-1 Receptor, 30 min at 37° C. In outline:
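cAMP measured by HTRF competition (d2-labelled cAMP with cryptate antibody, 1 h, room temperature, protected from light). Before that, GLP1R/CRE-Luc HEK293 cells (1000/well) were exposed for 30 min at 37 °C to half-log compound dilutions in DPBS containing IBMX 0.5 mM and BSA 0.1%.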
`O=C(Nc1ccc2c(c1)nc(CN1CCC(c3cccc(OCc4ccc(Cl)cc4F)n3)CC1)n2C[C@@H]1CCO1)c1ccn2cncc2c1` [Compound 179a, N-{2-[(4-{6-[(4-chloro-2-fluorophenyl)methoxy]pyridin-2-yl}piperidin-1-yl)methyl]-1-{[(2S)-oxetan-2-yl]methyl}-1H-1,3-benzodiazol-5-yl}imidazo[1,5-a]pyridine-7-carboxamide] showed a pEC50 of 9.57.
`O=C(Nc1ccc2c(c1)nc(CN1CCC(c3cccc(OCc4ccc(Cl)cc4F)n3)CC1)n2C[C@@H]1CCO1)C1Cc2ccncc2C1` (stereo partly drawn) [Compound 180a, N-{2-[(4-{6-[(4-chloro-2-fluorophenyl)methoxy]pyridin-2-yl}piperidin-1-yl)methyl]-1-{[(2S)-oxetan-2-yl]methyl}-1H-1,3-benzodiazol-5-yl}-5H,6H,7H-cyclopenta[c]pyridine-6-carboxamide] showed a pEC50 of 8.22.
Compound `O=C(Nc1ccc2c(c1)nc(CN1CCC(c3cccc(OCc4ccc(Cl)cc4F)n3)CC1)n2C[C@@H]1CCO1)c1cnc2ccccn12` [Compound 181a, N-{2-[(4-{6-[(4-chloro-2-fluorophenyl)methoxy]pyridin-2-yl}piperidin-1-yl)methyl]-1-{[(2S)-oxetan-2-yl]methyl}-1H-1,3-benzodiazol-5-yl}imidazo[1,2-a]pyridine-3-carboxamide] showed a negative logarithm of the EC50 (pEC50) of 9.51.
As to `CC(C(=O)Nc1ccc2c(c1)nc(CN1CCC(c3cccc(OCc4ccc(Cl)cc4F)n3)CC1)n2C[C@@H]1CCO1)c1cnn(C)c1` (stereo partly drawn) [Compound 182a, N-{2-[(4-{6-[(4-chloro-2-fluorophenyl)methoxy]pyridin-2-yl}piperidin-1-yl)methyl]-1-{[(2S)-oxetan-2-yl]methyl}-1H-1,3-benzodiazol-5-yl}-2-(1-methyl-1H-pyrazol-4-yl)propanamide], the negative logarithm of the EC50 (pEC50) was 8.60.
`CC1(C(=O)Nc2ccc3c(c2)nc(CN2CCC(c4cccc(OCc5ccc(Cl)cc5F)n4)CC2)n3C[C@@H]2CCO2)CCCCO1` (stereo partly drawn) [Compound 183a, N-{2-[(4-{6-[(4-chloro-2-fluorophenyl)methoxy]pyridin-2-yl}piperidin-1-yl)methyl]-1-{[(2S)-oxetan-2-yl]methyl}-1H-1,3-benzodiazol-5-yl}-2-methyloxane-2-carboxamide] gave a pEC50 of 8.40.
As to `Cc1cnc(C(=O)Nc2ccc3c(c2)nc(CN2CCC(c4cccc(OCc5ccc(Cl)cc5F)n4)CC2)n3C[C@@H]2CCO2)c(C)c1` [Compound 184a, N-{2-[(4-{6-[(4-chloro-2-fluorophenyl)methoxy]pyridin-2-yl}piperidin-1-yl)methyl]-1-{[(2S)-oxetan-2-yl]methyl}-1H-1,3-benzodiazol-5-yl}-3,5-dimethylpyridine-2-carboxamide], the pEC50 is 8.70.
`Cc1ccnn1C(C)C(=O)Nc1ccc2c(c1)nc(CN1CCC(c3cccc(OCc4ccc(Cl)cc4F)n3)CC1)n2C[C@@H]1CCO1` (stereo partly drawn) [Compound 185a, N-{2-[(4-{6-[(4-chloro-2-fluorophenyl)methoxy]pyridin-2-yl}piperidin-1-yl)methyl]-1-{[(2S)-oxetan-2-yl]methyl}-1H-1,3-benzodiazol-5-yl}-2-(5-methyl-1H-pyrazol-1-yl)propanamide] showed a pEC50 of 8.28. This pEC50 lies 0.42 log units lower than the previous one.
In the case of `O=C(Nc1ccc2c(c1)nc(CN1CCC(c3cccc(OCc4ccc(Cl)cc4F)n3)CC1)n2C[C@@H]1CCO1)C1CCC(F)(F)C1` (stereo partly drawn) [Compound 186a, N-{2-[(4-{6-[(4-chloro-2-fluorophenyl)methoxy]pyridin-2-yl}piperidin-1-yl)methyl]-1-{[(2S)-oxetan-2-yl]methyl}-1H-1,3-benzodiazol-5-yl}-3,3-difluorocyclopentane-1-carboxamide] it was 8.52.
On to `Cc1cc(C(=O)Nc2ccc3c(c2)nc(CN2CCC(c4cccc(OCc5ccc(Cl)cc5F)n4)CC2)n3C[C@@H]2CCO2)nn1C` [Compound 187a, N-{2-[(4-{6-[(4-chloro-2-fluorophenyl)methoxy]pyridin-2-yl}piperidin-1-yl)methyl]-1-{[(2S)-oxetan-2-yl]methyl}-1H-1,3-benzodiazol-5-yl}-1,5-dimethyl-1H-pyrazole-3-carboxamide], for which the pEC50 was 9.06.
The compound `Cc1ncccc1C(=O)Nc1ccc2c(c1)nc(CN1CCC(c3cccc(OCc4ccc(Cl)cc4F)n3)CC1)n2C[C@@H]1CCO1` [Compound 188a, N-{2-[(4-{6-[(4-chloro-2-fluorophenyl)methoxy]pyridin-2-yl}piperidin-1-yl)methyl]-1-{[(2S)-oxetan-2-yl]methyl}-1H-1,3-benzodiazol-5-yl}-2-methylpyridine-3-carboxamide] gave a pEC50 of 10.37.
Turning to `O=C(Nc1ccc2c(c1)nc(CN1CCC(c3cccc(OCc4ccc(Cl)cc4F)n3)CC1)n2C[C@@H]1CCO1)C1COCCC1(F)F` (stereo partly drawn) [Compound 189a, N-{2-[(4-{6-[(4-chloro-2-fluorophenyl)methoxy]pyridin-2-yl}piperidin-1-yl)methyl]-1-{[(2S)-oxetan-2-yl]methyl}-1H-1,3-benzodiazol-5-yl}-4,4-difluorooxane-3-carboxamide], the negative-log EC50 (pEC50) is 9.09.
For `O=C(Nc1ccc2c(c1)nc(CN1CCC(c3cccc(OCc4ccc(Cl)cc4F)n3)CC1)n2C[C@@H]1CCO1)c1ccc(F)cn1` [Compound 190a, N-{2-[(4-{6-[(4-chloro-2-fluorophenyl)methoxy]pyridin-2-yl}piperidin-1-yl)methyl]-1-{[(2S)-oxetan-2-yl]methyl}-1H-1,3-benzodiazol-5-yl}-5-fluoropyridine-2-carboxamide] the value was 8.92; for `Cc1cncc(C)c1C(=O)Nc1ccc2c(c1)nc(CN1CCC(c3cccc(OCc4ccc(Cl)cc4F)n3)CC1)n2C[C@@H]1CCO1` [Compound 191a, N-{2-[(4-{6-[(4-chloro-2-fluorophenyl)methoxy]pyridin-2-yl}piperidin-1-yl)methyl]-1-{[(2S)-oxetan-2-yl]methyl}-1H-1,3-benzodiazol-5-yl}-3,5-dimethylpyridine-4-carboxamide], 8.06; for `CC1(C)CCC(C(=O)Nc2ccc3c(c2)nc(CN2CCC(c4cccc(OCc5ccc(Cl)cc5F)n4)CC2)n3C[C@@H]2CCO2)CO1` (stereo partly drawn) [Compound 192a, N-{2-[(4-{6-[(4-chloro-2-fluorophenyl)methoxy]pyridin-2-yl}piperidin-1-yl)methyl]-1-{[(2S)-oxetan-2-yl]methyl}-1H-1,3-benzodiazol-5-yl}-6,6-dimethyloxane-3-carboxamide], 8.21.
The compound `O=C(Nc1ccc2c(c1)nc(CN1CCC(c3cccc(OCc4ccc(Cl)cc4F)n3)CC1)n2C[C@@H]1CCO1)C1CC12CCC2` (stereo partly drawn) [Compound 193a, N-{2-[(4-{6-[(4-chloro-2-fluorophenyl)methoxy]pyridin-2-yl}piperidin-1-yl)methyl]-1-{[(2S)-oxetan-2-yl]methyl}-1H-1,3-benzodiazol-5-yl}spiro[2.3]hexane-1-carboxamide] showed a negative logarithm of the EC50 (pEC50) of 9.64. This pEC50 lies 1.43 log units higher than the previous one.
In the case of `O=C(Nc1ccc2c(c1)nc(CN1CCC(c3cccc(OCc4ccc(Cl)cc4F)n3)CC1)n2C[C@@H]1CCO1)C(F)n1cccn1` (stereo partly drawn) [Compound 194a, N-{2-[(4-{6-[(4-chloro-2-fluorophenyl)methoxy]pyridin-2-yl}piperidin-1-yl)methyl]-1-{[(2S)-oxetan-2-yl]methyl}-1H-1,3-benzodiazol-5-yl}-2-fluoro-2-(1H-pyrazol-1-yl)acetamide] it was 9.33; in that of `CC(C(=O)Nc1ccc2c(c1)nc(CN1CCC(c3cccc(OCc4ccc(Cl)cc4F)n3)CC1)n2C[C@@H]1CCO1)n1ccnc1` (stereo partly drawn) [Compound 195a, N-{2-[(4-{6-[(4-chloro-2-fluorophenyl)methoxy]pyridin-2-yl}piperidin-1-yl)methyl]-1-{[(2S)-oxetan-2-yl]methyl}-1H-1,3-benzodiazol-5-yl}-2-(1H-imidazol-1-yl)propanamide], 9.20.
As to `COC1(C(=O)Nc2ccc3c(c2)nc(CN2CCC(c4cccc(OCc5ccc(Cl)cc5F)n4)CC2)n3C[C@@H]2CCO2)CCCOC1` (stereo partly drawn) [Compound 196a, N-{2-[(4-{6-[(4-chloro-2-fluorophenyl)methoxy]pyridin-2-yl}piperidin-1-yl)methyl]-1-{[(2S)-oxetan-2-yl]methyl}-1H-1,3-benzodiazol-5-yl}-3-methoxyoxane-3-carboxamide], the pEC50 was 8.96.
In the case of `O=C(Nc1ccc2c(c1)nc(CN1CCC(c3cccc(OCc4ccc(Cl)cc4F)n3)CC1)n2C[C@@H]1CCO1)C1CCC2(CCC2)CO1` (stereo partly drawn) [Compound 197a, N-{2-[(4-{6-[(4-chloro-2-fluorophenyl)methoxy]pyridin-2-yl}piperidin-1-yl)methyl]-1-{[(2S)-oxetan-2-yl]methyl}-1H-1,3-benzodiazol-5-yl}-6-oxaspiro[3.5]nonane-7-carboxamide] it was 8.37.
`CC1OC2(C(=O)Nc3ccc4c(c3)nc(CN3CCC(c5cccc(OCc6ccc(Cl)cc6F)n5)CC3)n4C[C@@H]3CCO3)CCC1CC2` (stereo partly drawn) [Compound 198a, N-{2-[(4-{6-[(4-chloro-2-fluorophenyl)methoxy]pyridin-2-yl}piperidin-1-yl)methyl]-1-{[(2S)-oxetan-2-yl]methyl}-1H-1,3-benzodiazol-5-yl}-3-methyl-2-oxabicyclo[2.2.2]octane-1-carboxamide] gave a pEC50 of 7.92.
For the compound `O=C(Nc1ccc2c(c1)nc(CN1CCC(c3cccc(OCc4ccc(Cl)cc4F)n3)CC1)n2C[C@@H]1CCO1)C1(C2CC2)CCCO1` (stereo partly drawn) [Compound 199a, N-{2-[(4-{6-[(4-chloro-2-fluorophenyl)methoxy]pyridin-2-yl}piperidin-1-yl)methyl]-1-{[(2S)-oxetan-2-yl]methyl}-1H-1,3-benzodiazol-5-yl}-2-cyclopropyloxolane-2-carboxamide], the pEC50 is 8.13.
Regarding `O=C(Nc1ccc2c(c1)nc(CN1CCC(c3cccc(OCc4ccc(Cl)cc4F)n3)CC1)n2C[C@@H]1CCO1)c1cncnc1` [Compound 200a, N-{2-[(4-{6-[(4-chloro-2-fluorophenyl)methoxy]pyridin-2-yl}piperidin-1-yl)methyl]-1-{[(2S)-oxetan-2-yl]methyl}-1H-1,3-benzodiazol-5-yl}pyrimidine-5-carboxamide], the pEC50 is 9.46.
